Results reported in patent publication US20150025119A1, “Release Application for Antihypertensive Agent on Plant Fiber Bundle” (National Tsing Hua University, priority 2013, published 2015).

Assay: Release of Valsartan from plant fiber bundle base (toothpick) in physiological saline, fluorescence analysis
Type: physicochemical
Details: toothpick impregnated at 10 mg/mL, released in physiological saline for 1, 3, 5, 10 minutes, 38 repetitions, FIG. 4
Source text: Firstly, in step 100, antihypertensive agents are fixed onto a plant fiber bundle base such as a toothpick, i.e., solid antihypertensive agents attached onto the plant fiber bundle base. In this step, the plant fiber bundle base may be impregnated in liquid antihypertensive agents. Because of the physical adsorption properties of plant fiber bundles, the composition of the liquid antihypertensive agents is gradually adsorbed into the plant fiber bundles until the amount of antihypertensive agents on plant fiber bundle base reaches a saturated condition. In one embodiment, the concentration of antihypertensive agents (e.g., Valsartan) in liquid form is 2.5, 5, 8, 10, 20 mg/mL, respectively. Then, the plant fiber bundle base is removed. […] Next, in step 102, fluorescence analysis of the released anti-hypertensive agents is performed. […] Based on this feature, an optical instrument is used for fluorescence analysis of different concentrations of Valsartan affixed to toothpicks. Fluorescence analysis of different concentrations of Valsartan was performed using ImageJ image analysis software. […] An optical instrument is used to collect fluorescence data of Valsartan after release in physiological saline in 38 repetitions of the experiment. […]

Q: Which “proportion of release (release percentage) of Valsartan over time” value does the source give for `CCCCC(=O)N(Cc1ccc(-c2ccccc2-c2nnn[nH]2)cc1)[C@H](C(=O)O)C(C)C` [Valsartan] here?
A: Its value is “increases until the saturation level is reached”.
